{
  "source": "patent US6335466B1",
  "about": "“Fluorinated amino polyhedral borate compounds” (Colorado State University Research Foundation, priority 2000, dated 2002)",
  "key": {"[1]": {"experiment": "Olefin polymerization catalyst activator test", "settings": "20 μmole Zr, Zr/A/Al 1/4/250, MAO; listed as C", "excerpt": "All solvents used in synthesis and polymerization experiments were obtained when possible as anhydrous grade and further purified as described below. Diethyl ether, hexanes and toluene were obtained from Aldrich Chemical Company (Milwaukee, Wis.) in Sure Seal® bottles as anhydrous grade. Solvents were further purified by passing through columns packed with activated A2 alumina and Q-5 catalyst which had been reduced tbennally under hydrogen. Methylliium in aiethyl ether, zirconecene dichloride, pentamethylcyclopentadienyl zirconium dichloride and methylaluminoxane (10 wt. % in toluene) were obtained from Aldrich Chemical Company and used without further purification. Methyllithium was titrated with an aqueous HCl standard (Aldrich Chemical Company) against a phenolphthalein indicator in order to determine the concentration prior to use. Tris(perfluorophenyl)borate (i.e., B2 borate) was obtained as a research sample from Albermarle (Baton Rouge, La.) (Lot # 29779501-10) and used without further purification.\nThe solvent for polymerization experiments was 2,2,4-trimethylpentane (i.e., iso-octane) which was obtained from Aldrich Chemical Company in 18 L Stainless Steel Kilo Lab® Cylinders as anhydrous grade. The polymerization solvent was further purified by passing through columns packed with activated 13× molecular sieves and Q-5 catalyst. Periodic checks were performed on the water content of the solvent by Karl Fischer Columbmetric Titration and determined to contain 3 ppm or less water after purification. Solids were stored, weighed and transferred in glove box equipped with a catalyst train under dry nitrogen. Polymerization stock solutions and compositions were prepared in septum fitted bottles in a glove box. All solutions were freshly prepared for each set of evaluations.\nAll solutions were prepared in a glove box under dry nitrogen in a glass narrow mouth bottle fitted with a septum. This solution was prepared by the dissolution of 63 mg of Cp2ZrMe2 in 50 mL of dry, nitrogen degassed toluene. The complex was completely miscible in the solvent. […]"}, "[2]": {"settings": "comparison species; cited from earlier work"}, "[3]": {"experiment": "Conductivity of glyme (DME) solutions", "type": "physicochemical", "excerpt": "A calibrated Yellow Springs model 3403 conductivity cell (cell constant k=1.113) and a model 31 conductivity bridge were employed. The measurements were made in a nitrogen-filled glove box. […] The concentration dependence of the conductivity of a lithium salt in a dilute solution is expected to be linear. The conductivity of a 0.01 M glyme solution of LiB12F11NMe3 is therefore expected to be about 78 μS cm^−1. The conductivity of a 0.0050 M glyme solution LiB12F11NMe3 is approximately ten times higher than the conductivity of a 0.010 M glyme solution of lithium triflate (4 μS cm−1).\nThe conductivities of solutions of Li(Dd3NB12F11) and Li(Bn2HNB12F11) (the latter sample was contaminated with about 15% Li(BnH2NB12F11)) were measured using a similar procedure as that of Example 25. A calibrated Yellow Springs model 3403 conductivity cell (cell constant k=0.98 cm−1) and a Yellow Springs model 31 conductivity bridge was employed. The measurements were made in a nitrogen-filled glove box. The conductivities of glyme solutions of Li(Dd3NB12F11), Li(Bn2HNB12F11), and lithium salts of related anions are listed in Table 2."}, "[4]": {"experiment": "Solubility in organic solvents and water", "type": "physicochemical"}, "[5]": {"settings": "lithium salts, 0.0100 M DME solutions, 25° C., nitrogen atm."}},
  "note": "Where “and” joins values, the source holds several entries; their conditions need not be identical. Identical values can stand only once.",
  "data": [
    {"compound": "Fc1c(F)c(F)c(OB(Oc2c(F)c(F)c(F)c(F)c2F)Oc2c(F)c(F)c(F)c(F)c2F)c(F)c1F", "note": "[B2 borate, Tris(perfluorophenyl)borate]", "values": [
      {"measurement": "Final Rate C2H4 uptake", "setting": "[1]", "value": "0.7 g/m and 0.9 g/m and 1.3 g/m and 0.8 g/m"},
      {"measurement": "Max Exotherm", "setting": "[1]", "value": "1 °C and 2 °C"},
      {"measurement": "Max Rate C2H4 uptake", "setting": "[1]", "value": "26.3 g/m and 21.7 g/m and 16.3 g/m and 24.9 g/m and 31.3 g/m"}
    ]},
    {"compound": "S", "note": "[HS^−1]", "values": [
      {"measurement": "pKa value of selected acids", "setting": "[2]", "value": 19.0}
    ]},
    {"compound": "F[P-](F)(F)(F)(F)F.[Li+]", "note": "[LiPF6]", "values": [
      {"measurement": "conductivity", "setting": "[3]; [5]", "value": 73, "unit": "μS cm−1"}
    ]},
    {"compound": "CCCCN", "note": "[NH3Bu^+1]", "values": [
      {"measurement": "pKa value of selected acids", "setting": "[2]", "value": 10.8}
    ]},
    {"compound": "CN", "note": "[NH3Me^+1]", "values": [
      {"measurement": "pKa value of selected acids", "setting": "[2]", "value": 10.7}
    ]},
    {"compound": "CCCC[N+](CCCC)(CCCC)CCCC.F[B-](F)(F)F", "note": "[[NBu4][BF4]]", "values": [
      {"measurement": "solubility in water relative to [NBu4][H3NB12F11]", "setting": "[4]", "value": "higher solubility"}
    ]},
    {"compound": "O=S(=O)([O-])C(F)(F)F.[Li+]", "note": "[lithium triflate]", "values": [
      {"measurement": "conductivity", "setting": "[3]; 0.010 M glyme solution", "value": 4, "unit": "μS cm^−1"},
      {"measurement": "conductivity", "setting": "[3]; [5]", "value": 4, "unit": "μS cm−1"}
    ]}
  ]
}
